# According to PMC6211297 (Biochemistry, 2017):
# Target: PglF (Campylobacter jejuni, UniProt Q0P9D4)
# Test: X-ray crystal structure, […] Å
# Type: binding
# Details: ternary complex with NAD(H); 10 mM UDP, pH 6.0; active site
# PglF, sequence (Q0P9D4 244-590): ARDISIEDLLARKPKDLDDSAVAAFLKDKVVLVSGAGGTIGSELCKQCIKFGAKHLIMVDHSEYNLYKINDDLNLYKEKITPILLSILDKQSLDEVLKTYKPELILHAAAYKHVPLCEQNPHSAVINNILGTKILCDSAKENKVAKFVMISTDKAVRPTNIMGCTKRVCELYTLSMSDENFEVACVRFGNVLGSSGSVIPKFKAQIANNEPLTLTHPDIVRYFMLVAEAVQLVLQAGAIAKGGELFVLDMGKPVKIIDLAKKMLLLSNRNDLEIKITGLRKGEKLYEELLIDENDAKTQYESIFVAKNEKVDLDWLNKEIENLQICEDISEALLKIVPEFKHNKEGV
smiles,measurement,value
O=c1ccn([C@@H]2O[C@H](COP(=O)(O)OP(=O)(O)O)[C@@H](O)[C@H]2O)c(=O)[nH]1 [UDP],"X-ray crystal structure, 2.0 Å",The first structure determined in this investigation was that of the PglF/NAD(H)/UDP ternary complex
